Test results as given in paper PMC5522529, “Mechanisms of Paradoxical Activation of AMPK by the Kinase Inhibitors SU6656 and Sorafenib” (Cell Chemical Biology, 2017).
Read-outs that look alike come from different tables or passages of the source.

Assays:
[1] = molecular target: α2 kinase domain (α2-KD, residues 1–310) (Homo sapiens, UniProt P54646); conditions: read-out: Km for ATP; α2-KD phosphorylated using CaMKK2
LKB1 versus AMPK = system: LKB1 versus AMPK; design: method as in MRC Kinase Inhibitor Database; conditions: ref MRC Kinase Inhibitor Database; cited from earlier work
HEK293 cells = assay: Cellular AMP:ATP and ADP:ATP ratios; format: cell-based, human; conditions: 1 hr
Experimental: (§1) (B) WT or RG cells were treated as in (A) and nucleotides extracted for analysis (mean ± SD, n = 3). […] (E) (See also Figure S2) Time courses of cellular oxygen uptake before and after addition of the indicated concentrations of sorafenib (SO, μM), SU6656 (100 μM) or phenformin (PHEN, 10 mM) (mean ± SEM, n = 4). (F) Effect of various concentrations of sorafenib or phenformin (10 mM) on activation (top, mean ± SEM, n = 3) or phosphorylation (bottom) of AMPK in cells expressing wild-type AMPK-γ2 (WT) or the R531G mutant AMPK-γ2 (RG). In all panels, asterisks show significant differences from DMSO controls (ns, not significant). In (B), daggers (†) show significant differences between results in WT and RG cells. *p < 0.05, **p < 0.01, ***p < 0.001, ****p < 0.0001, ^††††p < 0.0001.
Cells were incubated for 60 min and AMPK activity measured; results in the top panel are means ± SEM (n = 8), with significant differences from the DMSO control indicated (ns, not significant). The bottom panels show western blots from the same experiment (n = 2). (B) Analysis of AMP:ATP and ADP:ATP ratios from a parallel experiment to that in (A). Results are means ± SEM (n = 3), with significant differences from the DMSO control indicated. *p < 0.05, **p < 0.01, ****p < 0.0001.
The levels of AMP, ADP and ATP were measured using a TSQ Quantiva interfaced with Ultimate 3000 Liquid Chromatography system (ThermoScientific), equipped with a porous graphitic carbon column (HyperCarb 30x1mm ID 3 μm; Part No: C-35003-031030, Thermo-Scientific). Mobile phase buffer A consisted of 0.3% (v/v) formic acid adjusted to pH 9 with ammonia prior to a 1:10 dilution. Mobile phase buffer B was 80% (v/v) acetonitrile. The column was maintained at a controlled temperature of 30°C and was equilibrated with 10% buffer B for 5 minutes at a constant flow rate of 0.06 mL/min. Aliquots of 1 μL of each sample were loaded onto the column and compounds eluted with a linear gradient of 10%-60% buffer B over 9 min. Buffer B was then increased to 100% within 1 min, and the column washed for 5 min with 100% Buffer B. Eluents were sprayed into the TSQ Quantiva using Ion Max NG ion source with ion transfer tube temperature set to 350°C and vaporizer temperature 125°C. The TSQ Quantiva was run in negative mode with a spray voltage of 2600, sheath gas 40 and Aux gas 10. Levels of ATP, ADP and AMP were measured using multiple reactions monitoring mode (MRM) with optimised collision energies and radio frequencies previously determined by infusing pure compounds. Three transitions were used to monitor each of the three compounds, ATP (505.92>158.98, 505.92>408.12 and 505.92>426.12), ADP (426.98>158.98, 426.98>328.78 and 426.98>409.09) and AMP (345.96>134.20, 345.96>151.27 and 345.96>211.12).

ACC = ACC phosphorylation in HEK293 cells (western blot); format: cell-based, human; conditions: 1 hr
Experimental: (§2) Figure 1 SU6656 Activates AMPK but Not AMPK-Related Kinases (A) HEK293 cells were incubated with the indicated concentrations of SU6656 or berberine (300 μM) for 1 hr; total AMPK activity was assayed in immunoprecipitates (top; mean ± SEM, n = 4), and phosphorylation of AMPK (Thr172), ACC (Ser80), and Raptor (Ser792) analyzed by western blotting (bottom; n = 2). (B) HEK293 cells were incubated with 100 μM SU6656 (1 hr), AMPK complexes containing α1, α2, β1, and β2 immunoprecipitated using isoform-specific antibodies, and AMPK activity measured (mean ± SEM, n = 4). (C) HeLa cells stably expressing LKB1 ([Fogarty et al., 2010]) were incubated with 100 μM SU6656 for 1 hr, AMPK or individual ARKs immunoprecipitated, and kinase assays carried out (antibodies that distinguish MARK2/MARK3 were not available, so they were assayed together). Results are means ± SEM (n = 2). In all panels, asterisks indicate significant differences from controls without SU6656. *p < 0.05, **p < 0.01, ****p < 0.0001.
as §1, with “In (B), daggers (†) show significant differences between results in WT and RG cells. *p < 0.05, **p < 0.01, ***p < 0.001, ****p < 0.0001, ^††††p < 0.0001.” left out
Cells were incubated for 60 min and AMPK activity measured; results in the top panel are means ± SEM (n = 8), with significant differences from the DMSO control indicated (ns, not significant). […]
SDS-PAGE was performed using precast Bis-Tris 4–12% gradient polyacrylamide gels in the MOPS buffer system (ThermoFisher Scientific). […] Protein concentrations were determined by Coomassie Blue binding with bovine serum albumin as standard ([Bradford, 1976]). […]

AMPK [2] = assay: AMPK activity and Thr172 phosphorylation in HEK293 cells; format: cell-based, human; conditions: 1 hr
Experimental: as §2, with “0.0001. […]” for “0.0001.”
Endogenous AMPK was immunoprecipitated using the specified antibodies (for total AMPK, an equal mixture of anti-α1 and –α2 antibodies) and assayed at 200 μM ATP ([Hardie et al., 2000], [Towler et al., 2008]) using the AMARA peptide ([Dale et al., 1995]) as substrate, except for assays of allosteric activation by AMP (Figure 5A) where the SAMS peptide was used as substrate with 2 mM ATP ([Gowans et al., 2013]). The AMPK-related kinases SIK1, SIK2, SIK3, SNARK, MARK2/3 and MARK4 were immunoprecipitated and assayed as previously described ([Lizcano et al., 2004]) in lysates of Hela cells stably expressing LKB1 ([Fogarty et al., 2010]). LKB1 was assayed using the LKBtide peptide as substrate ([Sakamoto et al., 2004]).

Erk1/Erk2 = Erk1/Erk2 phosphorylation in HEK293 cells (western blot); format: cell-based, human; conditions: SU6656 100 μM, PP2 100 nM
AMPK [3] = format: cell-based, mouse; conditions: SYF cells, 1 hr
Experimental: We next tested the effect of SU6656 in SYF cells, which are mouse embryo fibroblasts (MEFs) with null alleles for Src, Yes, and Fyn, the three Src kinases expressed in MEFs ([Klinghoffer et al., 1999]).
Top: AMPK activity (mean ± SEM, n = 4); bottom: western blots showing phosphorylation of Thr172 on AMPK, and of ERK1/2, in cells treated with DMSO (control), SU6656 (100 μM), or PP2 (100 nM) (n = 2). (B) As (A), but in SYF cells. (C) HeLa cells were transfected with DNAs encoding GFP alone, or GFP fused to WT, Y261F/Y365F (FF), or Y36F/Y261F/Y365F (FFF) mutants of LKB1; cells were treated with increasing concentrations of SU6656 for 1 hr and AMPK activity determined (mean ± SEM, n = 4). See also Figure S1. (D) HEK293 cells were transfected with DNAs encoding FLAG-tagged AMPK-α2 with or without a Y436F mutation. Cells were incubated with DMSO (control), 100 μM SU6656, 10 mM phenformin, or 10 μM A23187 for 1 hr; AMPK complexes were immunoprecipitated using anti-FLAG antibody and assayed. The top panels show kinase activities (mean ± SD, n = 3); the bottom panels show blots from the same experiment (n = 2). In all panels, asterisks indicate significant differences from DMSO controls; in (D), there were no significant differences between the WT and Y463F mutant. **p < 0.01, ****p < 0.0001. […]

Erk1/2 = Erk1/2 phosphorylation in SYF cells; format: cell-based, mouse; conditions: SU6656 100 μM, PP2 100 nM

Chain of α2 kinase domain (α2-KD, residues 1–310) (P54646 1-310): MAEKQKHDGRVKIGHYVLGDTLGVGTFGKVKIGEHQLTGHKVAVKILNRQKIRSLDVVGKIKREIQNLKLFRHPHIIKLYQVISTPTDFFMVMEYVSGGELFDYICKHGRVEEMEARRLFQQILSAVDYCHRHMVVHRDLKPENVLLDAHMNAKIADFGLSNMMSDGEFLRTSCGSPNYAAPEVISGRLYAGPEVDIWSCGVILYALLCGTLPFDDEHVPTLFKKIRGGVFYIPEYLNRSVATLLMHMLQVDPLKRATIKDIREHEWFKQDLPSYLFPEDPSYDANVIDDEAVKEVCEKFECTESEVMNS

## Nc1ncnc2c1ncn2[C@@H]1O[C@H](COP(=O)(O)OP(=O)(O)OP(=O)(O)O)[C@@H](O)[C@H]1O [ATP]
[1]
  Km: 151 ± 7 µM

## CC1(C)C(=O)N([C@H]2CCc3c(O)cccc32)c2nc(Nc3cccc(CN4CCCC4)c3)ncc21 [MRT199665]
LKB1 versus AMPK
  potency of LKB1 inhibition relative to AMPK inhibition: inhibition of LKB1 was less potent than that of AMPK
HEK293 cells
  cellular AMP:ATP and ADP:ATP ratios: not associated with changes in AMP:ATP or ADP:ATP ratios
ACC
  ACC phosphorylation: inhibition of phosphorylation
AMPK [2]
  AMPK activity / Thr172 phosphorylation: modest increase in AMPK activity and Thr172 phosphorylation

## CC(C)(C)n1nc(-c2ccc(Cl)cc2)c2c(N)ncnc21 [PP2]
Erk1/Erk2
  Erk1/Erk2 phosphorylation: reduced phosphorylation of Erk1/Erk2
AMPK [2]
  AMPK activity / Thr172 phosphorylation: had no effect on AMPK activity or Thr172 phosphorylation
AMPK [3]
  AMPK activity / Thr172 phosphorylation: still had no effect on AMPK
Erk1/2
  Erk1/2 phosphorylation: had no effect on Erk1/2

## c1cc(-c2cnn3cc(-c4ccc(OCCN5CCCCC5)cc4)cnc23)ccn1 [compound C]
LKB1 versus AMPK
  potency of LKB1 inhibition relative to AMPK inhibition: inhibit LKB1 with similar potency to AMPK
